In patent US20250381243A1, “HETEROCYCLES AND USES THEREOF” (Kumquat Biosciences Inc., priority 2022, published 2025):
Where two headings read alike, the source gives them in different places.

Test system: A549 cells
Test: Cell proliferation assay (CellTiter-Glo), cells with K-Ras G12S mutation
Format: cell-based
Conditions: Homo sapiens, read-out: Inhibition of A549 Cells (IC50)
Outline: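 A549 (K-Ras G12S) cells in RPMI-1640 with 10% heat-inactivated FBS, plated in standard or ultra-low-attachment 384-well format, treated next day with a dilution series (e.g., 10-point, 3-fold). Viability read by CellTiter-Glo luminescence about 6 days later; IC50 from four-parameter fit.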

Row | IC50 (≤500 nM) [nM] | IC50 (500 nM to 5 μM (mixed units)) [nM] | SMILES
1 | ≤ 500 | – | C[C@H]1CC[C@]2(CN(C(=O)n3cnc(Cl)n3)[C@@H]2C2CCC2)CN1c1nc(OC[C@@]23CCCN2C[C@H](F)C3)nc2c(F)c(-c3ccc(F)c4sc(N)c(C#N)c34)c(Cl)cc12 [Compound 146, 2-amino-4-(6-chloro-4-((1R,4R,7S)-2-(3-chloro-1H-1,2,4-triazole-1-carbonyl)-1-cyclobutyl-7-methyl-2,6-diazaspiro[3.5]nonan-6-yl)-8-fluoro-2-(((2R,7aS)-2-fluorotetrahydro-1H-pyrrolizin-7a(5H)-yl)methoxy)quinazolin-7-yl)-7-fluorobenzo[b]thiophene-3-carbonitrile]
2 | ≤ 500 | – | N#Cc1c(N)sc2c(F)ccc(-c3c(Cl)cc4c(N5CCCC[C@@]6(C5)CN(C(=O)n5cnc(Cl)n5)[C@@H]6C5CC5)nc(OC[C@@]56CCCN5C[C@H](F)C6)nc4c3F)c12 [Compound 147, 2-amino-4-(6-chloro-4-((1R,4R)-2-(3-chloro-1H-1,2,4-triazole-1-carbonyl)-1-cyclopropyl-2,6-diazaspiro[3.6]decan-6-yl)-8-fluoro-2-(((2R,7aS)-2-fluorotetrahydro-1H-pyrrolizin-7a(5H)-yl)methoxy)quinazolin-7-yl)-7-fluorobenzo[b]thiophene-3-carbonitrile]
3 | ≤ 500 | – | CN(C[C@@H]1CN(C(=O)n2cnc(F)n2)[C@@H]1C1(CF)CC1)c1nc(OC[C@@]23CCCN2C[C@H](F)C3)nc2c(F)c(-c3ccc(F)c4sc(N)c(C#N)c34)c(Cl)cc12 [Compound 148, 2-amino-4-(6-chloro-8-fluoro-4-((((2S,3R)-1-(3-fluoro-1H-1,2,4-triazole-1-carbonyl)-2-(1-(fluoromethyl)cyclopropyl)azetidin-3-yl)methyl)(methyl)amino)-2-(((2R,7aS)-2-fluorotetrahydro-1H-pyrrolizin-7a(5H)-yl)methoxy)quinazolin-7-yl)-7-fluorobenzo[b]thiophene-3-carbonitrile]
4 | – | 500 to 5000 | CCN(C(=O)n1cnc(Cl)n1)C1CCN(c2nc(OC[C@@]34CCCN3C[C@H](F)C4)nc3c(F)c(-c4ccc(F)c5sc(N)c(C#N)c45)c(Cl)cc23)C1C (stereo partly drawn) [Compound 149, N-(1-(7-(2-amino-3-cyano-7-fluorobenzo[b]thiophen-4-yl)-6-chloro-8-fluoro-2-(((2R,7aS)-2-fluorotetrahydro-1H-pyrrolizin-7a(5H)-yl)methoxy)quinazolin-4-yl)-2-methylpyrrolidin-3-yl)-3-chloro-N-ethyl-1H-1,2,4-triazole-1-carboxamide]
5 | – | 500 to 5000 | N#Cc1c(N)sc2c(F)ccc(-c3c(Cl)cc4c(N5CCCC(N(C(=O)n6cnc(Cl)n6)C6CC6)C5)nc(OC[C@@]56CCCN5C[C@H](F)C6)nc4c3F)c12 (stereo partly drawn) [Compound 151, N-(1-(7-(2-amino-3-cyano-7-fluorobenzo[b]thiophen-4-yl)-6-chloro-8-fluoro-2-(((2R,7aS)-2-fluorotetrahydro-1H-pyrrolizin-7a(5H)-yl)methoxy)quinazolin-4-yl)piperidin-3-yl)-3-chloro-N-cyclopropyl-1H-1,2,4-triazole-1-carboxamide]
6 | ≤ 500 | – | CN(C[C@@H]1CN(C(=O)n2cnc(F)n2)[C@@H]1C(C)(C)C)c1nc(OC[C@@]23CCCN2C[C@H](F)C3)nc2c(F)c(-c3ccc(F)c4sc(N)c(C#N)c34)c(Cl)cc12 [Compound 152, 2-amino-4-(4-((((2S,3R)-2-(tert-butyl)-1-(3-fluoro-1H-1,2,4-triazole-1-carbonyl)azetidin-3-yl)methyl)(methyl)amino)-6-chloro-8-fluoro-2-(((2R,7aS)-2-fluorotetrahydro-1H-pyrrolizin-7a(5H)-yl)methoxy)quinazolin-7-yl)-7-fluorobenzo[b]thiophene-3-carbonitrile]
7 | – | 500 to 5000 | CC(C)[C@H]1N(C(=O)n2cnc(Cl)n2)C[C@]12CC[C@@H](C)N(c1nc(OC[C@@]34CCCN3C[C@H](F)C4)nc3c(F)c(-c4ccc(F)c5sc(N)c(C#N)c45)c(Cl)cc13)C2 [Compound 153, 2-amino-4-(6-chloro-4-((1R,4R,7R)-2-(3-chloro-1H-1,2,4-triazole-1-carbonyl)-1-isopropyl-7-methyl-2,6-diazaspiro[3.5]nonan-6-yl)-8-fluoro-2-(((2R,7aS)-2-fluorotetrahydro-1H-pyrrolizin-7a(5H)-yl)methoxy)quinazolin-7-yl)-7-fluorobenzo[b]thiophene-3-carbonitrile]
8 | ≤ 500 | – | CCN(C[C@@H]1CN(C(=O)n2cnc(Cl)n2)[C@@H]1C(C)C)c1nc(OC[C@@]23CCCN2C[C@H](F)C3)nc2c(F)c(-c3ccc(F)c4sc(N)c(C#N)c34)c(Cl)cc12 [Compound 154, 2-amino-4-(6-chloro-4-((((2R,3R)-1-(3-chloro-1H-1,2,4-triazole-1-carbonyl)-2-isopropylazetidin-3-yl)methyl)(ethyl)amino)-8-fluoro-2-(((2R,7aS)-2-fluorotetrahydro-1H-pyrrolizin-7a(5H)-yl)methoxy)quinazolin-7-yl)-7-fluorobenzo[b]thiophene-3-carbonitrile]
9 | – | 500 to 5000 | N#Cc1c(N)sc2c(F)ccc(-c3c(Cl)cc4c(N5CCOC6(C5)CN(C(=O)n5cncn5)C6C5CC5)nc(OC[C@@]56CCCN5C[C@H](F)C6)nc4c3F)c12 (stereo partly drawn) [Compound 156, 2-amino-4-(6-chloro-4-(1-cyclopropyl-2-(1H-1,2,4-triazole-1-carbonyl)-5-oxa-2,8-diazaspiro[3.5]nonan-8-yl)-8-fluoro-2-(((2R,7aS)-2-fluorotetrahydro-1H-pyrrolizin-7a(5H)-yl)methoxy)quinazolin-7-yl)-7-fluorobenzo[b]thiophene-3-carbonitrile]
10 | ≤ 500 | – | CC(C)[C@H]1N(C(=O)n2cnc(C(F)(F)F)n2)C[C@@]12CN(c1nc(OC[C@@]34CCCN3C[C@H](F)C4)nc3c(F)c(-c4ccc(F)c5sc(N)c(C#N)c45)c(Cl)cc13)CCO2 [Compound 160, 2-amino-4-(6-chloro-8-fluoro-2-(((2R,7aS)-2-fluorotetrahydro-1H-pyrrolizin-7a(5H)-yl)methoxy)-4-((1R,4S)-1-isopropyl-2-(3-(trifluoromethyl)-1H-1,2,4-triazole-1-carbonyl)-5-oxa-2,8-diazaspiro[3.5]nonan-8-yl)quinazolin-7-yl)-7-fluorobenzo[b]thiophene-3-carbonitrile]
11 | ≤ 500 | – | CN(C(=O)n1cncn1)C1CCCCN(c2nc(OC[C@@]34CCCN3C[C@H](F)C4)nc3c(F)c(-c4ccc(F)c5sc(N)c(C#N)c45)c(Cl)cc23)C1 (stereo partly drawn) [Compound 161, N-(1-(7-(2-amino-3-cyano-7-fluorobenzo[b]thiophen-4-yl)-6-chloro-8-fluoro-2-(((2R,7aS)-2-fluorotetrahydro-1H-pyrrolizin-7a(5H)-yl)methoxy)quinazolin-4-yl)azepan-3-yl)-N-methyl-1H-1,2,4-triazole-1-carboxamide]
12 | ≤ 500 | – | CC(C)[C@H]1N(C(=O)n2cnc(C(F)F)n2)C[C@]12CCCN(c1nc(OC[C@@]34CCCN3C[C@H](F)C4)nc3c(F)c(-c4ccc(F)c5sc(N)c(C#N)c45)c(Cl)cc13)C2 [Compound 165, 2-amino-4-(6-chloro-4-((1R,4R)-2-(3-(difluoromethyl)-1H-1,2,4-triazole-1-carbonyl)-1-isopropyl-2,6-diazaspiro[3.5]nonan-6-yl)-8-fluoro-2-(((2R,7aS)-2-fluorotetrahydro-1H-pyrrolizin-7a(5H)-yl)methoxy)quinazolin-7-yl)-7-fluorobenzo[b]thiophene-3-carbonitrile]
